Reference: ChEMBL document CHEMBL1146341, “Synthesis and in vivo evaluation of [18F]-4-[5-(4-methylphenyl)-3-(trifluoromethyl)-1H-pyrazol-1-yl]benzenesulfonamide as a PET imaging probe for COX-2 expression” (Bioorg Med Chem, 2007)

Columns and labels:
[1] = Ratio of drug uptake in skull to putamen in baboon at 1.2 mCi after 115 mins; assay type: ADME; conditions: papio hamadryas, in vivo
[2] = Ratio of drug uptake in skull to hippocampus in baboon at 1.2 mCi after 115 mins; assay type: ADME, tissue-based; conditions: papio hamadryas, in vivo
[3] = Ratio of drug uptake in skeleton to heart in Sprague-Dawley rat at 0.2 mCi, iv after 112 mins; assay type: ADME, organism-based; conditions: in vivo
[4] = Ratio of drug uptake in skeleton to cerebellum in Sprague-Dawley rat at 0.2 mCi, iv after 112 mins; assay type: ADME, organism-based; conditions: in vivo
[5] = Drug level in baboon plasma assessed as unmetabolized fractions after 60 mins; assay type: ADME, cell-free; conditions: papio hamadryas, read-out: Activity
[6] = Drug level in baboon plasma assessed as unmetabolized fractions after 2 mins; assay type: ADME, cell-free; conditions: papio hamadryas, read-out: Activity
[7] = Ratio of drug uptake in skeleton to brain in Sprague-Dawley rat at 0.2 mCi, iv after 112 mins; assay type: ADME, organism-based; conditions: in vivo
[8] = Drug level in baboon plasma assessed as unmetabolized fractions after 30 mins; assay type: ADME, cell-free; conditions: papio hamadryas, read-out: Activity
[9] = Ratio of drug uptake in skull to caudate in baboon at 1.2 mCi after 115 mins; assay type: ADME; conditions: papio hamadryas, in vivo
[10] = Ratio of drug uptake in skull to cerebellum in baboon at 1.2 mCi after 115 mins; assay type: ADME, tissue-based; conditions: papio hamadryas, in vivo
[11] = Ratio of drug uptake in skull to thalamus in baboon at 1.2 mCi after 115 mins; assay type: ADME, tissue-based; conditions: papio hamadryas, in vivo
[12] = Ratio of drug uptake in skull to cingulate in baboon at 1.2 mCi after 115 mins; assay type: ADME; conditions: papio hamadryas, in vivo
[13] = Drug level in baboon plasma assessed as unmetabolized fractions after 12 mins; assay type: ADME, cell-free; conditions: papio hamadryas, read-out: Activity
[14] = Drug level in baboon plasma assessed as unmetabolized fractions after 4 mins; assay type: ADME, cell-free; conditions: papio hamadryas, read-out: Activity

Structure (SMILES): Cc1ccc(-c2cc(C(F)(F)[18F])nn2-c2ccc(S(N)(=O)=O)cc2)cc1
- Ratio [1]: 1.46
- Ratio [2]: 1.41
- Ratio [3]: 0.7
- Ratio [4]: 0.5
- remaining at 1 h [5]: 17%
- remaining at 2 min [6]: 93.2%
- Ratio [7]: 0.45
- remaining at 0.5 h [8]: 30.2%
- Ratio [9]: 1.48
- Ratio [10]: 1.2
- Ratio [11]: 1.6
- Ratio [12]: 1.43
- remaining at 0.2 h [13]: 47.5%
- remaining at 4 min [14]: 84.9%
